# Data reported in patent US9717733B2, “Edible plant-derived microvesicle compositions including conjugated therapeutic agents and methods for using the same” (priority 2014, dated 2017).
# Experiments:
# [1] = system: DSS-induced colitis in mice; assay: DSS-induced colitis, therapeutic effect of GMTX; type: in vivo, mouse; details: 5 mg/kg oral on day 3, 5 and 6 of DSS
# Protocol: Colitis was induced in mice by addition of 2% (wt/vol) DSS (MW 36-50 KD molecular weight, MP Biomedicals, OH) in their drinking water for the duration of the study. DSS solution was freshly prepared every other day. Body weight and physical activity were monitored daily. To test the protective effect of GDNs, mice fasted for 4 h were orally given either PBS or 10 mg/kg of GDNs daily for 7 days and then treated with 2% DSS in drinking water for 7 days to induce colitis with continued administration of GDNs. To test the therapeutic effect of GMTX, colitis was first induced in mice by providing 2% DSS in their drinking water. On day 3, 5 and 6 of DSS-induced colitis, mice were treated with free MTX (5 mg/kg body weight) or GMTX (MTX equaled to 5 mg/kg) by oral administration. […]
# For histopathology, tissues were fixed in 10% neutral formalin and then embedded in paraffin. […] Histological examination was performed in a blinded fashion and the severity of colitis was scored as described previously. […] E-cadherin and F4/80 binding was detected by Alexa Fluor 488 conjugated goat anti-mouse IgG or goat anti-rat IgG (1:600, Invitrogen), respectively. […]
# To assess the local levels of IL-6, IL-1β, TNF-α, organ cultures were generated from naïve, GDN, PBS/DSS and GDN/DSS challenged mice. […] The local levels of PGE2 were determined by a PGE2-specific EIA (Cayman Chemical, Ann Arbor, Mich.) as described previously. […]
# Raw264.7 macrophages = assay: Internalization assay (GDN uptake with endocytosis inhibitors); type: cell-based, mouse; details: 30 min pretreatment: 50 μM amiloride, 12.5 μM chlorpromazine or 100 μM indomethacin; 2 μg/ml PKH26-labeled GDNs, 3 h
# Protocol: Macrophages were plated on Lab-Tek chamber slide (Sigma) and incubated for 24 h in growth medium. Before the uptake assay, GDNs were labeled with PKH26, sucrose gradient purified and diluted in PBS. Uptake was performed by incubating cell cultures with 2 μg/ml of GDNs for 3 h in a humid chamber (37° C., 5% CO2). For inhibition experiments, cell cultures were pre-incubated with individual inhibitors for 30 min before performing the uptake experiments.
SMILES,"symptoms of colitis vs PBS treated mice (colon tissue damage, colon length reduction, E-cadherin expression) [1]",inhibition of GDN uptake (Raw264.7 macrophages)
"CN(Cc1cnc2nc(N)nc(N)c2n1)c1ccc(C(=O)N[C@@H](CCC(=O)O)C(=O)O)cc1 [free MTX, methotrexate]",aggravated symptoms of colitis,–
COc1ccc2c(c1)c(CC(=O)O)c(C)n2C(=O)c1ccc(Cl)cc1 [indomethacin],–,did not significantly alter
